Read-outs that look alike come from different tables or passages of the source.
Tests used:
human recombinant CB1R = molecular target: T1, human recombinant CB1R (Homo sapiens, UniProt P21554); assay: Competition binding assay, displacement of [3H]-CP-55,940 from membranes of HEK-293 cells overexpressing CB1R; details: for Ki: [3H]-CP-55,940 displacement, HEK-293 membranes, 90 min at 30 °C, Cheng-Prusoff, read-out: Ki hCB1R (µM ± S.E.); for inhibition at 10 µM: read-out: % Displacement/ Max. Conc. Tested, hCB1R
T1 construct: purchased Perkin-Elmer, Italy; host or cells: HEK-293 cells (membranes)
Protocol: (§1) The binding affinities (Ki values) of the compounds for human recombinant hCB1R and hCB2R were determined as previously described, using SR144528 as a reference compound [30], and are reported in Table 1.
(§2) Compound affinity for CB1R and CB2R was measured as previously reported. […] Competition curves were performed by displacing [^3H]-CP-55 940 with increasing concentrations of compounds (0.1 nM–10 or 25 μM). […] All compounds were tested following the procedure described by the manufacturer (Perkin-Elmer, Italy). Displacement curves were generated by incubating drugs with [^3H]-CP-55 940 for 90 min at 30 °C. Ki values were calculated by applying the Cheng−Prusoff equation to the IC50 values for the displacement of the bound radioligand by increasing concentrations of the test compound. Data represent the mean values of three independent experiments performed in duplicate and are expressed as the average of Ki (µM) ± standard deviation. Data were analyzed using PRISM.9.3 software (GraphPad Software Inc, San Diego, CA, USA).

human CB2R = human CB2R (Homo sapiens, UniProt P34972); assay: Competition binding assay, displacement of [3H]-CP-55,940 from membranes of HEK-293 cells overexpressing CB2R; set-up: purchased Perkin-Elmer, Italy; host or cells: HEK-293 cells (membranes); details: for Ki: [3H]-CP-55,940 displacement, HEK-293 membranes, 90 min at 30 °C, Cheng-Prusoff, read-out: Ki hCB2R (µM ± S.E.)
Protocol: as §1, §2

[1] = max conc. tested 10 µM, read-out: % Displacement/ Max Conc. Tested, hCB2R (converted)

Chain of human CB2R (P34972 whole entry): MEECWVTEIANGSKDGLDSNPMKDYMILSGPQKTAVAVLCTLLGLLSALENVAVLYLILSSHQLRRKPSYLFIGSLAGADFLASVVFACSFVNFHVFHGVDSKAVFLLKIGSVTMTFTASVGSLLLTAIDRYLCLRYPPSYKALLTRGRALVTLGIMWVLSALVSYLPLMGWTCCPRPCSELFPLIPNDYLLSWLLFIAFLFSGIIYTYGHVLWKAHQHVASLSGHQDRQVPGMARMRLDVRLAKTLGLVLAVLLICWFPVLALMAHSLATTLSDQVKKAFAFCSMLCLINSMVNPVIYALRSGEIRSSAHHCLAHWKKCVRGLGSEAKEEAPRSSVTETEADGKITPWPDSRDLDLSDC
T1 sequence (P21554 whole entry): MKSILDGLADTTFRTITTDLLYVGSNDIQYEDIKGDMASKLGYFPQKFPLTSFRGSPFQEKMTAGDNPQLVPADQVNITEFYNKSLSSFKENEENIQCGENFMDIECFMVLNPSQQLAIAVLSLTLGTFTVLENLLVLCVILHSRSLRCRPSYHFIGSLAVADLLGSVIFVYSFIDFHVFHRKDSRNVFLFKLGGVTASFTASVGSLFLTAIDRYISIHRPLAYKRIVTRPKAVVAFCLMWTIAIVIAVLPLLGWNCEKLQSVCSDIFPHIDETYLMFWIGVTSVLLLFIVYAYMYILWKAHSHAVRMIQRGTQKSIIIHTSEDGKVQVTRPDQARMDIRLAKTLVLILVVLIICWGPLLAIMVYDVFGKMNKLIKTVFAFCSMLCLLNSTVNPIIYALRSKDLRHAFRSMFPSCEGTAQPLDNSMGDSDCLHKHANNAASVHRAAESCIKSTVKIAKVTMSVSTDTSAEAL

| inhibition at 10 µM (human recombinant CB1R; max conc. tested 10 µM) | SMILES | Ki (human recombinant CB1R) | Ki (human CB2R) | inhibition at 10 µM (human CB2R; [1]) | inhibition at 10 µM (human recombinant CB1R) | inhibition at 10 µM (human CB2R; read-out: % Displacement/ Max Conc. Tested, hCB2R) | melting point | inhibition at 25 µM (human CB2R; max conc. tested 25 µM, read-out: % Displacement/ Max Conc. Tested, hCB2R (converted)) |
| --- | --- | --- | --- | --- | --- | --- | --- | --- |
| 8.78% | CCN1CC(=NS(=O)(=O)c2ccc(C)cc2)N(CC)C1=O [Compound 1, N-[1,3-Diethyl-2-oxoimidazolidin-4-ylidene]-4-methylbenzenesulfonamide] | > 10 µM | > 10 µM | 7.7% |  |  |  |  |
| 32.8% | CN1CC(=NS(=O)(=O)c2ccccc2)N(C)C1=O [Compound 4a, N-[1,3-Dimethyl-2-oxoimidazolidin-4-ylidene]benzenesulfonamide] | > 10 µM | > 10 µM | 6.19% |  |  |  |  |
| 26.9% | Cc1ccc(S(=O)(=O)N=C2CN(C)C(=O)N2C)cc1 [Compound 4b, N-[1,3-Dimethyl-2-oxoimidazolidin-4-ylidene]-4-methylbenzenesulfonamide] | > 10 µM | > 10 µM | 7.08% |  |  |  |  |
| 47.5% | CN1CC(=NS(=O)(=O)c2ccc(Cl)cc2)N(C)C1=O [Compound 4c, 4-Chloro-N-[1,3-dimethyl-2-oxoimidazolidin-4-ylidene]benzenesulfonamide] | > 10 µM | > 10 µM | 12.3% |  |  |  |  |
| 14.9% | CN1CC(=NS(=O)(=O)c2ccc(Br)cc2)N(C)C1=O [Compound 4d, 4-Bromo-N-[1,3-dimethyl-2-oxoimidazolidin-4-ylidene]benzenesulfonamide] | > 10 µM | > 10 µM | 10.7% |  |  |  |  |
| 22.7% | CCN1CC(=NS(=O)(=O)c2ccccc2)N(CC)C1=O [Compound 4e, N-[1,3-Diethyl-2-oxoimidazolidin-4-ylidene]benzenesulfonamide] | > 10 µM | > 10 µM | 7.72% |  |  |  |  |
| 17.8% | CCN1CC(=NS(=O)(=O)c2ccc(Cl)cc2)N(CC)C1=O [Compound 4f, 4-Chloro-N-[1,3-diethyl-2-oxoimidazolidin-4-ylidene]benzenesulfonamide] | > 10 µM | > 10 µM | 14.9% |  |  |  |  |
| 20.6% | CCN1CC(=NS(=O)(=O)c2ccc(Br)cc2)N(CC)C1=O [Compound 4g, 4-Bromo-N-[1,3-diethyl-2-oxoimidazolidin-4-ylidene]benzenesulfonamide] | > 10 µM | > 10 µM | 13.4% |  |  |  |  |
|  | CC(C)(C)N1CC(=NS(C)(=O)=O)N(c2ccccc2)C1=O [Compound 9a, N-[1-tert-Butyl-2-oxo-3-phenylimidazolidin-4-ylidene]-methanesulfonamide] | > 10 µM | > 10 µM | 8.84% | 9.48% |  |  |  |
|  | CC(C)(C)N1CC(=NS(=O)(=O)c2ccccc2)N(c2ccccc2)C1=O [Compound 9b, N-[1-tert-Butyl-2-oxo-3-phenylimidazolidin-4-ylidene]benzenesulfonamide] | > 10 µM | > 10 µM | 22.6% | 12% |  |  |  |
|  | Cc1ccc(S(=O)(=O)N=C2CN(C(C)(C)C)C(=O)N2c2ccccc2)cc1 [Compound 9c, N-[1-tert-Butyl-2-oxo-3-phenylimidazolidin-4-ylidene]-4-methylbenzenesulfonamide] | > 10 µM | > 10 µM | 5.39% | 7.22% |  |  |  |
| 4.64% | CC(C)(C)N1CC(=NS(=O)(=O)c2cccc(Br)c2)N(c2ccccc2)C1=O [Compound 9e, 3-Bromo-N-[1-tert-butyl-2-oxo-3-phenylimidazolidin-4-ylidene]benzenesulfonamide] | > 10 µM | > 10 µM | 24.1% |  |  |  |  |
| 0% | Cc1cc(C)c(S(=O)(=O)N=C2CN(C(C)(C)C)C(=O)N2c2ccccc2)c(C)c1 [Compound 9f, N-[1-tert-Butyl-2-oxo-3-phenylimidazolidin-4-ylidene]-2,4,6-trimethylbenzenesulfonamide] | > 10 µM | > 10 µM | 47.8% |  |  |  |  |
|  | CC(C)(C)N1CC(=NS(=O)(=O)c2cccc3ccccc23)N(c2ccccc2)C1=O [Compound 9g, N-[1-tert-Butyl-2-oxo-3-phenylimidazolidin-4-ylidene]naphthalene-1-sulfonamide] | > 10 µM | > 10 µM | 11% | 14.8% |  |  |  |
|  | CC(C)(C)N1CC(=NS(=O)(=O)c2ccc3ccccc3c2)N(c2ccccc2)C1=O [Compound 9h, N-[1-tert-Butyl-2-oxo-3-phenylimidazolidin-4-ylidene]naphthalene-2-sulfonamide] | > 10 µM | > 10 µM | 35.6% | 8.35% |  |  |  |
|  | CC(C)(C)N1CC(=NS(C)(=O)=O)N(CC2CC2)C1=O [Compound 10a, N-[1-tert-Butyl-3-cyclopropylmethyl-2-oxoimidazolidin-4-ylidene]methanesulfonamide] | > 10 µM | > 10 µM | 13.4% | 16.3% |  | 83.5 to 84 °C |  |
|  | Cc1ccc(S(=O)(=O)N=C2CN(C(C)(C)C)C(=O)N2CC2CC2)cc1 [Compound 10c, N-[1-tert-Butyl-3-cyclopropylmethyl-2-oxoimidazolidin-4-ylidene]-4-methylbenzenesulfonamide] | > 10 µM | 1.47 ± 0.05 µM |  | 0% |  | 104.5 to 105 °C | 89.5% |
|  | CC(C)(C)N1CC(=NS(=O)(=O)c2ccc3ccccc3c2)N(CC2CC2)C1=O [Compound 10h, N-[1-tert-Butyl-3-cyclopropylmethyl-2-oxoimidazolidin-4-ylidene]naphthalene-2-sulfonamide] | > 10 µM | 0.78 ± 0.17 µM | 72.3% | 8.18% |  |  |  |
|  | CC(C)N1CC(=NS(=O)(=O)c2cccc3ccccc23)N(CC2CC2)C1=O [Compound 13, N-[3-(cyclopropylmethyl)-2-oxo-1-(propan-2-yl)imidazolidin-4-ylidene]naphthalene-1-sulfonamide] | > 10 µM | 0.8 ± 0.02 µM | 78.3% | 4.63% |  |  |  |
|  | Cc1ccc(S(=O)(=O)N=C2CN(C(C)(C)C)C(=O)N2CC(C)C)cc1 [Compound 14, N-[1-tert-Butyl-3-(2-methylpropyl)-2-oxoimidazolidin-4-ylidene]-4-methylbenzene-1-sulfonamide] | > 10 µM | > 10 µM | 47.8% | 0.02% |  |  |  |
|  | CC(C)(C)N1C(=O)N(CC2CC2)CC1=NS(=O)(=O)c1ccccc1 [Compound 15, N-[3-tert-Butyl-1-(cyclopropylmethyl)-2-oxoimidazolidin-4-ylidene]benzenesulfonamide] | > 10 µM | 1.61 ± 0.16 µM | 73.9% | 0.01% |  |  |  |

| SMILES | inhibition at 10 µM (human recombinant CB1R; max conc. tested 10 µM) | Ki (human recombinant CB1R) | Ki (human CB2R) | inhibition at 10 µM (human CB2R; [1]) | inhibition at 10 µM (human recombinant CB1R) | inhibition at 10 µM (human CB2R; read-out: % Displacement/ Max Conc. Tested, hCB2R) | melting point | inhibition at 25 µM (human CB2R; max conc. tested 25 µM, read-out: % Displacement/ Max Conc. Tested, hCB2R (converted)) |
| --- | --- | --- | --- | --- | --- | --- | --- | --- |
| CC(C)(C)N1CC(=NS(=O)(=O)c2ccc(Br)cc2)N(c2ccccc2)C1=O [Compound 9d, 4-Bromo-N-[1-tert-butyl-2-oxo-3-phenylimidazolidin-4-ylidene]benzenesulfonamide] | 17.4% |  | > 10 µM |  |  | 53.5% |  |  |

Source: publication PMC9738591, “N-[1,3-Dialkyl(aryl)-2-oxoimidazolidin-4-ylidene]-aryl(alkyl)sulphonamides as Novel Selective Human Cannabinoid Type 2 Receptor (hCB2R) Ligands; Insights into the Mechanism of Receptor Activation/Deactivation” (Molecules, 2022)
